In patent US11478496B2, “Treatments of prostate cancer” (THE FLORIDA INTERNATIONAL UNIVERSITY BOARD OF TRUSTEES, priority 2020, dated 2022):

What was measured:
LAPC4 cells = assay: Cell Titer Glo cell viability assay, LAPC4; type: cell-based, human; conditions: 10 μM; androgen depleted conditions (CSS); 24 and 48 h
Method: FIGS. 3A-3B show cellular toxicity of the lead compounds in androgen-dependent prostate cancer cell lines. (3A) LNCaP cells were plated in a 96-well plate at 1×10^4 cells/well in the presence of Fetal Bovine Serum (FBS) or Charcoal stripped Serum (CSS). Cells were allowed to attach overnight and were treated with either vehicle (DMSO) or 10 μM of indicated compound. At 24 and 48 h cellular viability was compared using the Cell Titer Glo Luminescent Cell Viability kit. (3B) LAPC4 cells were plated in a 96-well plate at a density of 1×10^4 cells/well in the presence of FBS or CSS. Cells were allowed to attach overnight and treated with 10 μM of indicated compound.
Cell viability was determined using the Cell Titer Glo Cell Viability Assay (Promega, Madison, Wis.), as recommended by manufacturer. All experiments were performed in quadruplicate.

[1] = system: BER reconstituted with purified Pol β, FEN1, and LIG I; assay: Secondary gel-based BER assay reconstituted with purified core BER enzymes; type: biochemical; conditions: 10 μM compound, THF substrate
Method: The secondary screening assay was performed as described below in the “Materials and Methods” section. Lane 1 represents the substrate only. Lane 2 indicates the reaction mixture with 5 nM APE1. Lanes 3 and 4 correspond to the reaction mixture with 5 nM APE1, 10 nM pol β, 10 nM FEN1 and 20 nM LIG I in the absence and presence of dimethylsulfoxide (DMSO). Lanes 5 through 19 correspond to the reaction mixture with 5 nM APE1, 10 nM pol β, 10 nM FEN1 and 20 nM LIG I in the presence of indicated compounds. The experiments were repeated at least three times. A representative gel is illustrated.
The hit compounds were subject to secondary assays to determine their ability to reduce the BER capacity when reconstituted with purified core BER enzymes, as well as their inhibitory effects on individual BER enzymes including pol FEN1 and LIG I. The effect of hit compounds on BER capacity and BER enzymes was examined using a denaturing sequencing gel-based assay. 10 μM hit compounds were incubated with 10 nM pol β, 10 nM FEN1 and 20 nM LIG I in BER reaction buffer containing 50 mM Tris-HCl (pH 7.5), 50 mM KCl, 0.1 mM EDTA, 0.1 mg/ml bovine serum albumin, and 0.01% Nonidet P-40 in the presence of 5 mM Mg^2+ and 2 mM ATP. The compounds were initially preincubated with a BER enzyme at varying concentrations for 1 h with rotation. This was followed by the addition of 25 nM ^32P-labeled substrate containing an abasic site, which was precut with 25 or 50 nM APEI. The reaction mixture (20 μL) was incubated at 37° C. for 30 min, and the reaction was terminated by 50 mM EDTA. Substrates, products, and unrepaired BER intermediates were separated by 15% urea-denaturing sequencing gel and detected by a Pharos FX Plus PhosphorImager (Bio-Rad, Hercules, Calif.).
Among the 26 identified compounds, nine were DNA intercalators or inhibitors of human DNA topoisomerases and were excluded from further studies. Thus, […] FDA approved drugs were selected for further testing. To further confirm the inhibitory effects of the lead compounds on BER, the effects of the compounds on BER reactions reconstituted with purified BER core enzymes were initially determined.

LIG I = LIG I (Homo sapiens, UniProt P18858); assay: LIG I activity on nicked substrate; type: biochemical; conditions: 5 nM LIG I
Method: Lane 1 represents the substrate only. Lanes 2 and 3 indicates the reaction mixture with 5 nM LIG I in the absence and presence of DMSO. […] The substrate was ^32P-labeled at the 5′-end of the upstream strand and is illustrated above the gel. The experiments were repeated at least three times. Representative gel is illustrated. Quantification of the results is shown below the gel. Two-way ANOVA with Tukey's multiple comparison posttests was used to determine statistically significant differences. * signifies p<0.05 compared to the control reaction with LIG I and DMSO. […] Lane 1 represents the substrate only. Lanes 2 and 3 indicates the reaction mixture with 5 nM pol β in the absence and presence of DMSO. […] The substrate was ^32P-labeled at the 5′-end of the upstream strand and is illustrated above the gel. The experiments were repeated at least three times. Quantification of the results are shown below the gel. Two-way ANOVA with Tukey's multiple comparison posttests was used to determine statistical significance. * signifies p<0.05 compared to the control reaction with pol β and DMSO.
BER reactions were terminated by adding 2× stopping buffer containing 95% formamide and 10 mM EDTA. Reaction mixtures were then denatured at 95° C. for 5 min and separated by 15% urea-denaturing polyacrylamide gel electrophoresis. Substrates and products were detected and analyzed using a Pharos FX Plus PhosphorImager (Bio-Rad, Hercules, Calif.).

LNCaP cells = assay: MTT viability/toxicity assay, LNCaP; type: cell-based; conditions: 48 h
Method: Cells were seeded in a 96 well plate at 1×10^4 cells/well and allowed to adhere overnight in the presence of FBS or CSS. The following day treatment was added to the wells and the plates were incubated for 24 h or 48 h. After incubation, 50 μL of MTT (2 mg/mL) was added to each well and incubated in the dark for 4 h. After incubation 150 μL of the media/MTT solution was removed and 100 μL of DMSO was added to each well and incubated for 15 min. Absorbance at 570 nm was measured using a ClarioStar Plate Reader (BMG LabTech, Ortenburg, Germany).

RWPE1 cells = assay: RTCA impedance proliferation assay, RWPE1; type: cell-based; conditions: 10 μM; serum free medium
Method: (6A-6B) PNT1A cells were plated onto xCelligence E-plates at 5×10^4 cells per well in media supplemented with 10% FBS (6A) or CSS (6B). Cells were allowed to attach overnight and treated with vehicle (DMSO) or 10 μM of indicated compounds. Cellular impedance was monitored continuously with 30 min intervals. (6C) RWPE1 cells were plated at 5×10^4 cells per well in serum free medium supplemented with Epidermal Growth Factor (EGF) and Bovine Pituitary Extract ([…]) onto E-plates and treated with 10 μM of indicated compounds as indicated. […] Proliferation assays were done using Roche DP Real Time Cell Analyzer (RTCA), as described by the manufacturer. Background impedance was established after incubating E-plates (Acea Biosciences, San Diego, Calif.) with 50 μL media at room temperature for 30 min and placed in RTCA. Cells were then seeded in 100 μL per well. Cells attached overnight and then treated. During attachment stage and after treatment impedance was measured every 30 min. Impedance is represented by cell index and is calculated as follows: CI=(Zi−Zo)/15Ω where Zi is impedance at an individual time point, and Zo is the background impedance. Average CI was calculated from four wells per treatment at each time point and normalized to the impedance immediately after compound addition.

Sequence of LIG I (P18858 whole entry): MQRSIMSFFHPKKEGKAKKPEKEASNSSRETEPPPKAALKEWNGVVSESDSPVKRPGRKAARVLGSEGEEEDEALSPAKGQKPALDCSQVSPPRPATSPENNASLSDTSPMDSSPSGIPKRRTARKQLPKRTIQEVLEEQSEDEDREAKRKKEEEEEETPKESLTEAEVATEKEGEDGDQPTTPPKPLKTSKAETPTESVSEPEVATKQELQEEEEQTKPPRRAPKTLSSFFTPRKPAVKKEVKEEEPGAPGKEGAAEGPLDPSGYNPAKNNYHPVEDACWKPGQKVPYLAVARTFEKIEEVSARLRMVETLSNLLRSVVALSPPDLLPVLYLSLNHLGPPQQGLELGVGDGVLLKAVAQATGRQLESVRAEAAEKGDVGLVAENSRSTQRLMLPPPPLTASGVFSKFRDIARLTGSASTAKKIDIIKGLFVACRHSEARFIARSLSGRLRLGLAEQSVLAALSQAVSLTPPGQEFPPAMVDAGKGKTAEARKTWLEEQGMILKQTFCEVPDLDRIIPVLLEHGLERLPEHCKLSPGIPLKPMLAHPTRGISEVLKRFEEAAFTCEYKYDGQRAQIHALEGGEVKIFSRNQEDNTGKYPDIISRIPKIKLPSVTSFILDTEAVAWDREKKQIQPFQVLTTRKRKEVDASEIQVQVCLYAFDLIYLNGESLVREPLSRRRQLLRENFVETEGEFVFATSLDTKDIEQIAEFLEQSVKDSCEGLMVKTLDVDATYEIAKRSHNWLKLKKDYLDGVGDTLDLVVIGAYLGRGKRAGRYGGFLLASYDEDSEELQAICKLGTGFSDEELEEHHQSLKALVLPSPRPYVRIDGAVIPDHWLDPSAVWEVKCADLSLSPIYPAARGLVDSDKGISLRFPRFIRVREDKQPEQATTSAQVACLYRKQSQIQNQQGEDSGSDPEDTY

C[C@@H]1C/C=C/C=C/C=C/C=C/[C@H](O[C@@H]2O[C@H](C)[C@@H](O)[C@H](N)[C@@H]2O)C[C@@H]2O[C@](O)(C[C@@H](O)C[C@H]3O[C@@H]3/C=C/C(=O)O1)C[C@H](O)[C@H]2C(=O)O [natamycin]
toxicity (cell viability) in LAPC4 (LAPC4 cells): highest toxicity | BER capacity and production of the BER repair product [1]: significantly reduced BER capacity | reduction of the activity of LIG I (LIG I; 0.5 μM natamycin): 3.5 fold | decrease of the activity of LIG I (LIG I; 5 μM natamycin): 14 fold | reduction of the activity of LIG I (LIG I; at 1 (unit not given) natamycin): 3.5 fold | concentration reducing viability of LNCaP cells (LNCaP cells; CSS medium): ≥ 0.1 µM | concentration required to reduce LNCaP viability (LNCaP cells; medium supplemented with FBS): ≥ 2.5 µM | RWPE1 proliferation (RWPE1 cells): slightly inhibited
